The series can be described thus: in vitro. To be noted: human, hela cells, % viability.
The viability is a read-out of living cells in per cent, often relative to untreated cells. Take `COc1ccnc(C(=O)N(Cc2ccccn2)CC2CCCO2)c1` (stereo not drawn) [CBK307303]: the viability at 28.5 h, 10 µM came to 94.1%.

Take `O=C(CCSc1ccccc1)Nc1ccc(Br)cc1F` [CBK266825]: the viability at 28.5 h, 10 µM is 101%.

As for `COc1cc([C@@]23CC[C@@H](NC(=O)Nc4ccc(F)c(F)c4)C[C@@H]2N(C)CC3)ccc1O` [CBK049958C], the viability at 28.5 h, 10 µM worked out at 90.3%.

For `OC[C@H]1O[C@@H](n2cnc3c(Cl)nccc32)C[C@H]1O` [CBK201273], the viability at 28.5 h, 10 µM was 88.5%.

With `COc1ccc(Cn2c(=O)n(S(=O)(=O)c3cccc(-c4nnc(C)o4)c3)c3ccccc32)cc1` [CBK106558], the viability at 28.5 h, 10 µM worked out at 89.8%.

Regarding `O=C(c1sc2ccccc2c1Cl)N1CCN(CCN2C(=O)c3cccc4cccc(c34)C2=O)CC1` [CBK262557], the viability at 28.5 h, 10 µM came out at 99%.

Turning to `Cc1cc(C2CCCCCN2S(=O)(=O)c2ccc(F)cc2)on1` (stereo not drawn) [CBK284668], the viability at 28.5 h, 10 µM worked out at 82.2%.

On to `CCC(CC)C(=O)N1CCC(CNc2cnc(-c3ccc(S(C)(=O)=O)cc3)cn2)CC1` [CBK172021], for which the viability at 28.5 h, 10 µM is 99.5%.

Take `Cn1nc2c(c1C(=O)NCC(C)(C)N1CCCCC1)CCCC2` [CBK281878]: the viability at 28.5 h, 10 µM turned out to be 94.4%.

Take `CC(Nc1cccc2ccccc12)C(=O)N/N=C/c1c(O)ccc2ccccc12` (stereo not drawn) [CBK262678]: the viability at 28.5 h, 10 µM came to 97.5%.

In the case of `COc1ccc(Cn2nc(NS(=O)(=O)c3ccc(-c4ccon4)s3)c3ccccc32)cc1` [CBK048031], the viability at 28.5 h, 10 µM was 92.9%.

Turning to `O=C1CC2(CCN(C(=O)N3CCCC3)CC2)Oc2ccc(F)cc21` [CBK283597], the viability at 28.5 h, 10 µM is 84.9%.

On to `CNC(=O)C1(Cc2cccc(-c3cccs3)c2)CCN(C(=O)COc2ccccc2)CC1` [CBK285732], for which the viability at 28.5 h, 10 µM amounted to 95.5%.

Turning to `CC1(NC(=O)CC(c2ccncc2)c2c[nH]c3ccccc23)CCC1` (stereo not drawn) [CBK281610], the viability at 28.5 h, 10 µM was found to be 88.8%.

Regarding `Cc1nc(C2CCCN(C(=O)C3CCC3)C2)nc2c1CCCN2Cc1ccccc1` (stereo not drawn) [CBK286257], the viability at 28.5 h, 10 µM came to 78.2%.

As to `COc1cc(S(=O)(=O)N2CCC(C(N)=O)CC2)ccc1Br` [CBK268766], the viability at 28.5 h, 10 µM stood at 82.6%.

Regarding `Cc1ccc(S(=O)(=O)NC[C@H]2O[C@@H](CC(=O)N3CCOCC3)[C@H](O)[C@@H]2O)cc1` [CBK288924], the viability at 28.5 h, 10 µM was 87.5%.

With `COc1ccc(C(N)C2(O)CCN(Cc3ccccc3)CC2)cc1` (stereo not drawn) [CBK091386], the viability at 28.5 h, 10 µM is 107%.

`c1ccc(CCn2nnnc2CN2CCN(c3ccccc3)CC2)cc1` [CBK069271]: the viability at 28.5 h, 10 µM was determined as 95.2%.

Take `CCOc1ccc2c(c1)C(=O)c1cc(OCC(=O)O)ccc1-2` [CBK286693]: the viability at 28.5 h, 10 µM worked out at 94.3%.

Regarding `COc1cccc(CN2CCCC(NC(=O)NCc3cccs3)C2)c1` (stereo not drawn) [CBK307357], the viability at 28.5 h, 10 µM came to 73.3%.

For the compound `COC(=O)CN1N=C(C(C)(C)C)Cn2c(cc3sccc32)C1=O` [CBK284177], the viability at 28.5 h, 10 µM came to 83.3%.

In the case of `CN1CCN(C(=O)c2ccc(NS(=O)(=O)c3ccc(Oc4ccccc4)cc3)cc2)CC1` [CBK034559], the viability at 28.5 h, 10 µM was found to be 97.4%.

Regarding `Oc1ccc2ccccc2c1Cc1c(O)ccc2ccccc12` [CBK263583], the viability at 28.5 h, 10 µM was determined as 72.9%.

As for `COC(=O)[C@H]1CN(C(=O)C2CC(=O)N(C)C2)C[C@@H]1c1ccccc1F` (stereo partly drawn) [CBK285470], the viability at 28.5 h, 10 µM turned out to be 94.7%.

For the compound `O=C(c1ccc(-c2cncc(-c3cc4ccccc4[nH]3)c2)cc1)N1CCOCC1` [CBK158419T], the viability at 28.5 h, 10 µM was found to be 76.1%.

As for `COc1cc(C2Nc3ccccc3-c3nc(SC)nnc3O2)ccc1OCC(=O)O` (stereo not drawn) [CBK262687], the viability at 28.5 h, 10 µM is 94.3%.

As for `Cc1ccc(S(=O)(=O)N2CCOCC2)cc1-c1cnc(N)c(-c2ccc(O)cc2)n1` [CBK122519], the viability at 28.5 h, 10 µM was 98.7%.

In the case of `CCc1ncsc1C(=O)NC1CCCN(c2ccn(C)n2)C1=O` (stereo not drawn) [CBK306498], the viability at 28.5 h, 10 µM is 104%.

For `CC1=C(C(=O)N2CCOCC2)C(c2ccc(Cl)cc2)NC(=O)N1c1ccc(C(=O)O)cc1` (stereo not drawn) [CBK296999], the viability at 28.5 h, 10 µM is 93.1%.

Consider `CS(=O)(=O)N1CC2(CCN(CCc3c[nH]c4ccccc34)CC2)c2ccccc21` [CBK084017T], for which the viability at 28.5 h, 10 µM stood at 97.9%.

For the compound `COc1ccccc1CCC(=O)Nc1cnn(C)c1` [CBK287995], the viability at 28.5 h, 10 µM was determined as 117%.

Take `O=C(O)c1nn2c(C(F)(F)F)cc(-c3cccs3)nc2c1Cl` [CBK262581]: the viability at 28.5 h, 10 µM was determined as 95.4%.

In the case of `COc1cc(/C=C/c2[nH]c(=O)[nH]c(=O)c2[N+](=O)[O-])cc(Br)c1OCC(=O)O` [CBK267977], the viability at 28.5 h, 10 µM worked out at 91.5%.

For `CCc1nccn1CCCNC(=O)Nc1cccnc1` [CBK306736], the viability at 28.5 h, 10 µM was 94.6%.

Take `CCC(SC1=NCCS1)C(=O)Nc1ccc(S(N)(=O)=O)cc1` (stereo not drawn) [CBK263027]: the viability at 28.5 h, 10 µM stood at 95.3%.

Regarding `CCOC(=O)c1ccc(Cn2c(-c3ccccc3)nnc2-c2ccccc2)o1` [CBK267691], the viability at 28.5 h, 10 µM turned out to be 87.8%.

With `O=C(C1CCC1)N1CCC(n2nc(C3CC3)ccc2=O)CC1` [CBK284239], the viability at 28.5 h, 10 µM turned out to be 104%.

Regarding `Cc1nc(-c2ccccc2)sc1C(=O)C1=C(O)C(=O)N(CCN2CCOCC2)C1c1ccccc1F` (stereo not drawn) [CBK266511], the viability at 28.5 h, 10 µM stood at 103%.

In the case of `Nc1ccc(Oc2ccc(-n3c(=O)c4cc5c(=O)n(-c6ccc(Oc7ccc(N)cc7)cc6)c(=O)c5cc4c3=O)cc2)cc1` [CBK261489], the viability at 28.5 h, 10 µM stood at 104%.

`CC(C)[C@@H](N)Cn1nnc2ccccc21` [CBK284323]: the viability at 28.5 h, 10 µM is 82.7%.

`Cc1cc(C)c2nc(NC(=O)c3ccccc3)sc2c1` [CBK287308]: the viability at 28.5 h, 10 µM was found to be 97.9%.

Turning to `CCC(CN1CCCCC1)n1cncc1-c1cn(C)nc1C` (stereo not drawn) [CBK281460], the viability at 28.5 h, 10 µM amounted to 96.9%.

Take `CC1(c2[nH]nc(N)c2Cc2c(Cl)cccc2Cl)CC1` [CBK115483T]: the viability at 28.5 h, 10 µM came to 92.3%.

Turning to `O=C(CNC(=O)c1ccccc1C(=O)O)Nc1ccccc1` [CBK286690], the viability at 28.5 h, 10 µM was determined as 94.1%.

As to `CC(=O)N1CCN(c2cncc(-c3ccc(O)cc3)n2)CC1` [CBK126948T], the viability at 28.5 h, 10 µM amounted to 88.9%.

Turning to `Cc1nc(COc2ccccc2)nc(O)c1Cl` [CBK057810], the viability at 28.5 h, 10 µM amounted to 95.2%.

Take `O=C(CCN1CCCCC1)Nc1cnc(-c2ccc(F)cc2)c(-c2ccsc2)n1` [CBK036846]: the viability at 28.5 h, 10 µM is 90.3%.

Regarding `CCOc1cc(/C=C(/C#N)c2nc3ccccc3[nH]2)ccc1OCc1ccc(C(=O)O)o1` [CBK267923], the viability at 28.5 h, 10 µM stood at 88.9%.

With `CCc1nnc(NS(C)(=O)=O)s1` [CBK062197], the viability at 28.5 h, 10 µM came out at 93%.

In the case of `O=C(c1cc(-c2cccs2)[nH]n1)N1CCCCCC1` [CBK288108], the viability at 28.5 h, 10 µM came out at 92.1%.

With `Cc1ccc(S(=O)(=O)N2Cc3ccccc3CC2C(=O)Nc2sc3c(c2C#N)CCCC3)cc1` (stereo not drawn) [CBK266313], the viability at 28.5 h, 10 µM was 97.9%.

In the case of `O=C(CCSc1ccc(Cl)cc1)Nc1ccc(S(=O)(=O)N2CCOCC2)cc1` [CBK264133], the viability at 28.5 h, 10 µM was 95.5%.

On to `COc1ccc(CCNC(=O)N(CCC#N)C2CCCCC2)cc1` [CBK156375], for which the viability at 28.5 h, 10 µM came out at 100%.

Turning to `COc1ccc(CCCC(=O)NC2CCCCC2C)cc1` (stereo not drawn) [CBK026124], the viability at 28.5 h, 10 µM amounted to 94.3%.

`CCOC(=O)CN1CCN(S(=O)(=O)c2ccc(F)c(F)c2F)CC1` [CBK044345]: the viability at 28.5 h, 10 µM turned out to be 92.4%.

`O=C1CCCc2nccc(-c3ccc(Cl)cc3)c21` [CBK287870]: the viability at 28.5 h, 10 µM is 82.9%.

Turning to `O=C(Cc1ccc([N+](=O)[O-])cc1)Nc1cc(C(=O)O)cc(C(=O)O)c1` [CBK263345], the viability at 28.5 h, 10 µM was found to be 100%.

`COC(=O)Cn1c(CN2CCN(c3cccc(Cl)c3)CC2)nc2c1c(=O)n(C)c(=O)n2C` [CBK269598]: the viability at 28.5 h, 10 µM was 86.7%.

As to `Cc1ccc(S(=O)(=O)N(CC(=O)O)c2ccc(C)c(C)c2)cc1` [CBK263778], the viability at 28.5 h, 10 µM was found to be 89.6%.

As to `COCCCn1c(=O)[nH]c2ncc(-c3cccnc3)nc21` [CBK064929], the viability at 28.5 h, 10 µM was determined as 104%.

On to `NC(=O)C1CCN(C(=O)c2cc(O)nc3ccccc23)CC1` [CBK296719], for which the viability at 28.5 h, 10 µM was 98.2%.

In the case of `CCN1CCN(c2ccc(NC(=O)c3cc(-n4cnnc4)ccc3Cl)cc2Cl)CC1` [CBK269343], the viability at 28.5 h, 10 µM worked out at 88.1%.

With `CCCCc1c(Cl)nc(C#N)c2c1CCCC2` [CBK020252], the viability at 28.5 h, 10 µM is 98.9%.

For the compound `CC1CCN(Cc2ccc(-c3ccc(CC(=O)NCCc4ccc(O)cc4)cn3)cc2)CC1` [CBK158384], the viability at 28.5 h, 10 µM turned out to be 91.9%.

For the compound `CC(=O)N[C@H]1CC[C@]2(C)CCC([C@H](C)C(=O)N(C)Cc3ccccc3)[C@H](O)[C@H]2[C@@H]1C` (stereo partly drawn) [CBK289435], the viability at 28.5 h, 10 µM was found to be 110%.

Consider `O=C(NC(S(=O)O)C(F)(F)F)OCc1ccccc1` (stereo not drawn) [CBK018979], for which the viability at 28.5 h, 10 µM came to 87%.

In the case of `O=C(NC(c1ccccc1)c1ccsc1)C1CCN(C2Cc3ccccc3C2)CC1` (stereo not drawn) [CBK148541], the viability at 28.5 h, 10 µM was found to be 80%.

`CC(C)[C@H](CO)Nc1nc(-c2ccco2)cn2ccnc12` [CBK066316]: the viability at 28.5 h, 10 µM was 103%.

Consider `COc1ccc([N+](=O)[O-])cc1N(CC(=O)Nc1cccc2ccccc12)S(C)(=O)=O` [CBK268197], for which the viability at 28.5 h, 10 µM is 84.2%.

On to `CC(O)CN(Cc1ccc(-c2ccccc2)cc1)Cc1ccc2c(c1)OCO2` (stereo not drawn) [CBK286450], for which the viability at 28.5 h, 10 µM turned out to be 94.1%.

With `CC(C)(CO)CCCn1cncc1-c1cnn(-c2ccc(F)cc2)c1` [CBK281466], the viability at 28.5 h, 10 µM was 117%.

As for `N#Cc1ccccc1CSCCNC(=O)c1ccc(NC(=O)c2ccco2)s1` [CBK296749], the viability at 28.5 h, 10 µM was 80.8%.

For `CC(C)(Oc1ccc(Cl)cc1)C(=O)Nc1nnc[nH]1` [CBK288220], the viability at 28.5 h, 10 µM amounted to 102%.

Take `O=C(N/N=C/c1ccc([N+](=O)[O-])cc1)c1ccc(O)cc1O` [CBK261591]: the viability at 28.5 h, 10 µM is 105%.

On to `O=C(NC1Cc2ccccc2C1)c1nc2ccccc2[nH]1` [CBK200361], for which the viability at 28.5 h, 10 µM was 102%.

With `COC(=O)CCc1ccc(S(=O)(=O)N2CCN(Cc3csc(-c4ccccc4)n3)CC2)cc1` [CBK062812], the viability at 28.5 h, 10 µM was determined as 91.8%.

On to `CC1(C)Cc2nc3sc4c(=O)n(CC(=O)NCCc5ccccc5)cnc4c3cc2CS1` [CBK269180], for which the viability at 28.5 h, 10 µM was 97.8%.

(Values after article PMC12040169 (PLOS Biology, 2025).)
